In patent US20100204265A1 (priority 2009, published 2010) one finds EC50 data, which are given here for 29 molecules.

Where only a bound is given, the exact number is not on record here.

Usually EC50 stands for the concentration that produces a half-maximal response. High values mean a need for much substance, low ones an effect from little substance.

For this assay, the system named is ET (Huh-lucubineo-ET) cell line harboring I389luc-ubi-neo/NS3-3′/ET HCV replicon. The assay can be described thus: Replicon assay (HCV replicon, luciferase readout). The note with it: Hepatitis C virus. The format is cell-based. In short, it runs like this:
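Compounds at 10-point 2-fold dilutions (overall 0.1 nM to […], 0.5% DMSO) were applied to ET cells carrying a luciferase-neo HCV replicon, seeded a day earlier. After 48-72 hours, luciferase-based % inhibition was fitted with a Hill equation for EC50, and parallel WST-1 readings gave TC50.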
The molecule `O=C(c1nc2c(C(F)(F)F)cc(-c3ccoc3)cn2c1Cl)N1CC=C(c2ncccc2O)CC1` [Compound 201, (3-Chloro-6-furan-3-yl-8-trifluoromethyl-imidazo[1,2-a]pyridin-2-yl)-(3-hydroxy-3′,6′-dihydro-2′H-[2,4′]bipyridinyl-1′-yl)-methanone] gave a half-maximal effective concentration (EC50) of 15300 nM. As for `O=C(c1nc2c(C(F)(F)F)cc(-c3ccoc3)cn2c1Cl)N1CC=C(c2ncccc2Cl)CC1` [Compound 202, (3-Chloro-3′,6′-dihydro-2′H-[2,4′]bipyridinyl-1′-yl)-(3-chloro-6-furan-3-yl-8-trifluoromethyl-imidazo[1,2-a]pyridin-2-yl)-methanone], the figure is 329 nM; as for `O=C(c1nc2c(C(F)(F)F)cc(-c3ccoc3)cn2c1Cl)N1CC=C(c2cncc(F)c2)CC1` [Compound 203, (3-Chloro-6-furan-3-yl-8-trifluoromethyl-imidazo[1,2-a]pyridin-2-yl)-(5-fluoro-3′,6′-dihydro-2′H-[3,4′]bipyridinyl-1′-yl)-methanone], 974 nM. As for `O=C(c1nc2c(C(F)(F)F)cc(-c3ccoc3)cn2c1Cl)N1CC=C(c2cccc(F)n2)CC1` [Compound 204, (3-Chloro-6-furan-3-yl-8-trifluoromethyl-imidazo[1,2-a]pyridin-2-yl)-(6-fluoro-3′,6′-dihydro-2′H-[2,4′]bipyridinyl-1′-yl)-methanone], the figure is 3710 nM; as for `O=C(c1nc2c(C(F)(F)F)cc(-c3ccoc3)cn2c1Cl)N1CC=C(c2ncccc2C(F)(F)F)CC1` [Compound 205, (3-Chloro-6-furan-3-yl-8-trifluoromethyl-imidazo[1,2-a]pyridin-2-yl)-(3-trifluoromethyl-3′,6′-dihydro-2′H-[2,4′]bipyridinyl-1′-yl)-methanone], 18000 nM; as for `Cc1ccnc(C2=CCN(C(=O)c3nc4c(C(F)(F)F)cc(-c5ccoc5)cn4c3Cl)CC2)c1F` [Compound 206, (3-Chloro-6-furan-3-yl-8-trifluoromethyl-imidazo[1,2-a]pyridin-2-yl)-(3-fluoro-4-methyl-3′,6′-dihydro-2′H-[2,4′]bipyridinyl-1′-yl)-methanone], 5950 nM. The value for `Cc1ccc(F)c(C2=CCN(C(=O)c3nc4c(C(F)(F)F)cc(-c5ccoc5)cn4c3Cl)CC2)n1` [Compound 207, (3-Chloro-6-furan-3-yl-8-trifluoromethyl-imidazo[1,2-a]pyridin-2-yl)-(3-fluoro-6-methyl-3′,6′-dihydro-2′H-[2,4′]bipyridinyl-1′-yl)-methanone] was 17900 nM.

The molecule `O=C(c1nc2c(C(F)(F)F)cc(-c3ccoc3)cn2c1Cl)N1CC=C(c2ncncc2F)CC1` [Compound 208, (3-Chloro-6-furan-3-yl-8-trifluoromethyl-imidazo[1,2-a]pyridin-2-yl)-[4-(5-fluoro-pyrimidin-4-yl)-3,6-dihydro-2H-pyridin-1-yl]-methanone] returned an EC50 of 312 nM. In turn, `O=C(c1nc2c(C(F)(F)F)cc(-c3ccoc3)cn2c1Cl)N1CC=C(c2cc(F)ccn2)CC1` [Compound 209, (3-Chloro-6-furan-3-yl-8-trifluoromethyl-imidazo[1,2-a]pyridin-2-yl)-(4-fluoro-3′,6′-dihydro-2′H-[2,4′]bipyridinyl-1′-yl)-methanone] displayed a half-maximal effective concentration (EC50) of 399 nM. Turning to `O=C(c1nc2c(C(F)(F)F)cc(-c3ccoc3)cn2c1Cl)N1CC=C(c2ccccn2)CC1` [Compound 210, (3-Chloro-6-furan-3-yl-8-trifluoromethyl-imidazo[1,2-a]pyridin-2-yl)-(3′,6′-dihydro-2′H-[2,4′]bipyridinyl-1′-yl)-methanone], the EC50 worked out at 481 nM.

Molecule `N#Cc1cccnc1C1=CCN(C(=O)c2nc3c(C(F)(F)F)cc(-c4ccoc4)cn3c2Cl)CC1` [Compound 211, 1′-(3-Chloro-6-furan-3-yl-8-trifluoromethyl-imidazo[1,2-a]pyridine-2-carbonyl)-1′,2′,3′,6′-tetrahydro-[2,4′]bipyridinyl-3-carbonitrile] displayed a concentration giving a half-maximal response (EC50) of 1480 nM. The value for `O=C(c1nc2c(C(F)(F)F)cc(-c3ccoc3)cn2c1Cl)N1CC=C(/C=C/C2CC2)CC1` [Compound 212, (3-Chloro-6-furan-3-yl-8-trifluoromethyl-imidazo[1,2-a]pyridin-2-yl)-[4-(2-cyclopropyl-vinyl)-3,6-dihydro-2H-pyridin-1-yl]-methanone] was 338 nM; that for `O=C(c1nc2c(C(F)(F)F)cc(-c3ccoc3)cn2c1Cl)N1CC=C(C2=CCNC2)CC1` [Compound 213, (3-Chloro-6-furan-3-yl-8-trifluoromethyl-imidazo[1,2-a]pyridin-2-yl)-[4-(2,5-dihydro-1H-pyrrol-3-yl)-3,6-dihydro-2H-pyridin-1-yl]-methanone] was 942 nM.

Regarding `O=C(c1nc2c(C(F)(F)F)cc(-c3ccccc3)cn2c1Cl)N1CC=C(c2nccs2)C1` [Compound 215, (3-Chloro-6-phenyl-8-trifluoromethyl-imidazo[1,2-a]pyridin-2-yl)-(3-thiazol-2-yl-2,5-dihydro-pyrrol-1-yl)-methanone], the concentration for a half-maximal effect (EC50) turned out to be 32.2 nM. As for `O=C(c1nc2c(C(F)(F)F)cc(-c3cccnc3)cn2c1Cl)N1CC=C(c2nccs2)C1` [Compound 216, (3-Chloro-6-pyridin-3-yl-8-trifluoromethyl-imidazo[1,2-a]pyridin-2-yl)-(3-thiazol-2-yl-2,5-dihydro-pyrrol-1-yl)-methanone], the figure is 111 nM; as for `O=C(c1nc2c(C(F)(F)F)cc(C3=CCCCC3)cn2c1Cl)N1CC=C(c2nccs2)C1` [Compound 217, (3-Chloro-6-cyclohex-1-enyl-8-trifluoromethyl-imidazo[1,2-a]pyridin-2-yl)-(3-thiazol-2-yl-2,5-dihydro-pyrrol-1-yl)-methanone], 50.5 nM; as for `O=C(c1nc2c(C(F)(F)F)cc(C3=CCNCC3)cn2c1Cl)N1CC=C(c2nccs2)C1` [Compound 218, [3-Chloro-6-(1,2,3,6-tetrahydro-pyridin-4-yl)-8-trifluoromethyl-imidazo[1,2-a]pyridin-2-yl]-(3-thiazol-2-yl-2,5-dihydro-pyrrol-1-yl)-methanone], 2000 nM. For the molecule `O=C(c1nc2c(C(F)(F)F)cc(-c3ccoc3)cn2c1Cl)N1CCC(c2ncccc2F)CC1` [Compound 219, (3-Chloro-6-furan-3-yl-8-trifluoromethyl-imidazo[1,2-a]pyridin-2-yl)-(3-fluoro-3′,4′,5′,6′-tetrahydro-2′H-[2,4′]bipyridinyl-1′-yl)-methanone], a half-maximal response (EC50) required 65.1 nM. The value for `N#CC1(c2ncccc2F)CCN(C(=O)c2nc3c(C(F)(F)F)cc(-c4ccoc4)cn3c2Cl)CC1` [Compound 220, 1′-(3-Chloro-6-furan-3-yl-8-trifluoromethyl-imidazo[1,2-a]pyridine-2-carbonyl)-3-fluoro-2′,3′,5′,6′-tetrahydro-1′H-[2,4′]bipyridinyl-4′-carbonitrile] was 777 nM.

Consider `N#CC1(c2cccs2)CCN(C(=O)c2nc3c(C(F)(F)F)cc(-c4ccoc4)cn3c2Cl)CC1` [Compound 221, 1-(3-Chloro-6-furan-3-yl-8-trifluoromethyl-imidazo[1,2-a]pyridine-2-carbonyl)-4-thiophen-2-yl-piperidine-4-carbonitrile], for which the concentration for a half-maximal effect (EC50) came out at 45.5 nM. The value for `O=C(c1nc2c(C(F)(F)F)cc(-c3ccoc3)cn2c1Cl)N1CCC(O)(c2ncccc2F)CC1` [Compound 222, (3-Chloro-6-furan-3-yl-8-trifluoromethyl-imidazo[1,2-a]pyridin-2-yl)-(3-fluoro-4′-hydroxy-3′,4′,5′,6′-tetrahydro-2′H-[2,4′]bipyridinyl-1′-yl)-methanone] was 624 nM; that for `O=C(c1nc2c(C(F)(F)F)cc(-c3ccoc3)cn2c1Cl)N1CCC(F)(c2ncccc2F)CC1` [Compound 223, (3-Chloro-6-furan-3-yl-8-trifluoromethyl-imidazo[1,2-a]pyridin-2-yl)-(3,4′-difluoro-3′,4′,5′,6′-tetrahydro-2′H-[2,4′]bipyridinyl-1′-yl)-methanone] was 657 nM; that for `O=C(c1nc2c(C(F)(F)F)cc(-c3ccoc3)cn2c1Cl)N1CCC(O)(c2nccs2)CC1` [Compound 224, (3-Chloro-6-furan-3-yl-8-trifluoromethyl-imidazo[1,2-a]pyridin-2-yl)-(4-hydroxy-4-thiazol-2-yl-piperidin-1-yl)-methanone] was 3500 nM. The value for `CC(C)CCC1CCN(C(=O)c2nc3c(C(F)(F)F)cc(-c4ccoc4)cn3c2Cl)CC1` [Compound 225, (3-Chloro-6-furan-3-yl-8-trifluoromethyl-imidazo[1,2-a]pyridin-2-yl)-[4-(3-methyl-butyl)-piperidin-1-yl]-methanone] was 2300 nM. The value for `O=C(NCc1cn2cc(-c3ccoc3)cc(C(F)(F)F)c2n1)C1CC1` [Compound 226, Cyclopropanecarboxylic acid (6-furan-3-yl-8-trifluoromethyl-imidazo[1,2-a]pyridin-2-ylmethyl)-amide] was greater than 50000 nM.

As to `O=S(=O)(NCc1cn2cc(-c3ccoc3)cc(C(F)(F)F)c2n1)C1CC1` [Compound 227, Cyclopropanesulfonic acid (6-furan-3-yl-8-trifluoromethyl-imidazo[1,2-a]pyridin-2-ylmethyl)-amide], the EC50 was greater than 50000 nM.

Molecule `FC(F)(F)c1cc(-c2ccoc2)cn2cc(Cn3cnc(-c4ccccc4)c3)nc12` [Compound 228, 6-Furan-3-yl-2-(4-phenyl-imidazol-1-ylmethyl)-8-trifluoromethyl-imidazo[1,2-a]pyridine] gave an EC50 greater than 50000 nM. Molecule `FC(F)(F)c1cc(-c2ccoc2)cn2cc(Cc3nc(-c4ccccc4)no3)nc12` [Compound 229, 6-Furan-3-yl-2-(3-phenyl-[1,2,4,]oxadiazol-5-ylmethyl)-8-trifluoromethyl-imidazo[1,2-a]pyridine] returned an EC50 greater than 50000 nM. The value for `FC(F)(F)c1cc(-c2ccoc2)cn2cc(Cc3nc(Cc4ccccc4)no3)nc12` [Compound 230, 2-(3-Benzyl-[1,2,4]oxadiazol-5-ylmethyl)-6-furan-3-yl-8-trifluoromethyl-imidazo[1,2-a]pyridine] was greater than 50000 nM.
